The NIST ThermoML archive (doi:10.1021/je900482x)
± gives the expanded uncertainty stated by the source.

Assay: isobaric coefficient of expansion
Conditions: Liquid, Microcalorimeter

CCCCCC[n+]1ccn(C)c1.O=S(=O)([N-]S(=O)(=O)C(F)(F)F)C(F)(F)F
isobaric coefficient of expansion
Conditions	5000 kPa	10000 kPa	15000 kPa	20000 kPa	25000 kPa	30000 kPa	35000 kPa	40000 kPa	45000 kPa	50000 kPa
278.15 K	0.000674 ± 1.7e-05 1/K	0.000662 ± 1.6e-05 1/K	0.000654 ± 1.6e-05 1/K	0.000641 ± 1.6e-05 1/K	0.000635 ± 1.6e-05 1/K	0.000628 ± 1.5e-05 1/K	0.000619 ± 1.5e-05 1/K	0.000612 ± 1.5e-05 1/K	0.000602 ± 1.5e-05 1/K	0.000596 ± 1.5e-05 1/K
288.15 K	0.000668 ± 1.6e-05 1/K	0.000658 ± 1.6e-05 1/K	0.000647 ± 1.6e-05 1/K	0.000637 ± 1.6e-05 1/K	0.00063 ± 1.5e-05 1/K	0.00062 ± 1.5e-05 1/K	0.000614 ± 1.5e-05 1/K	0.000604 ± 1.5e-05 1/K	0.000597 ± 1.5e-05 1/K	0.000592 ± 1.5e-05 1/K
298.15 K	0.000664 ± 1.6e-05 1/K	0.000654 ± 1.6e-05 1/K	0.000643 ± 1.6e-05 1/K	0.000633 ± 1.6e-05 1/K	0.000626 ± 1.5e-05 1/K	0.000615 ± 1.5e-05 1/K	0.000605 ± 1.5e-05 1/K	0.000596 ± 1.5e-05 1/K	0.00059 ± 1.4e-05 1/K	0.000584 ± 1.4e-05 1/K
308.15 K	0.000659 ± 1.6e-05 1/K	0.000648 ± 1.6e-05 1/K	0.000637 ± 1.6e-05 1/K	0.000628 ± 1.5e-05 1/K	0.000618 ± 1.5e-05 1/K	0.000609 ± 1.5e-05 1/K	0.0006 ± 1.5e-05 1/K	0.000594 ± 1.5e-05 1/K	0.000585 ± 1.4e-05 1/K	0.000577 ± 1.4e-05 1/K
318.15 K	0.000654 ± 1.6e-05 1/K	0.000647 ± 1.6e-05 1/K	0.000637 ± 1.6e-05 1/K	0.000623 ± 1.5e-05 1/K	0.000615 ± 1.5e-05 1/K	0.000606 ± 1.5e-05 1/K	0.000597 ± 1.5e-05 1/K	0.000588 ± 1.4e-05 1/K	0.000578 ± 1.4e-05 1/K	0.000571 ± 1.4e-05 1/K
328.15 K	0.00065 ± 1.6e-05 1/K	0.000639 ± 1.6e-05 1/K	0.000632 ± 1.5e-05 1/K	0.000621 ± 1.5e-05 1/K	0.000609 ± 1.5e-05 1/K	0.000599 ± 1.5e-05 1/K	0.000591 ± 1.4e-05 1/K	0.000582 ± 1.4e-05 1/K	0.000574 ± 1.4e-05 1/K	0.000567 ± 1.4e-05 1/K
338.15 K	0.000649 ± 1.6e-05 1/K	0.000637 ± 1.6e-05 1/K	0.000627 ± 1.5e-05 1/K	0.000616 ± 1.5e-05 1/K	0.000605 ± 1.5e-05 1/K	0.000597 ± 1.5e-05 1/K	0.000588 ± 1.4e-05 1/K	0.00058 ± 1.4e-05 1/K	0.000571 ± 1.4e-05 1/K	0.000567 ± 1.4e-05 1/K
348.15 K	0.000644 ± 1.6e-05 1/K	0.000635 ± 1.6e-05 1/K	0.000623 ± 1.5e-05 1/K	0.00061 ± 1.5e-05 1/K	0.000602 ± 1.5e-05 1/K	0.000592 ± 1.5e-05 1/K	0.000584 ± 1.4e-05 1/K	0.000575 ± 1.4e-05 1/K	0.000567 ± 1.4e-05 1/K	0.000559 ± 1.4e-05 1/K

CCn1cc[n+](C)c1.O=S(=O)([N-]S(=O)(=O)C(F)(F)F)C(F)(F)F
isobaric coefficient of expansion
Conditions	5000 kPa	10000 kPa	15000 kPa	20000 kPa	25000 kPa	30000 kPa	35000 kPa	40000 kPa	45000 kPa	50000 kPa
278.15 K	0.00067 ± 1.6e-05 1/K	0.000659 ± 1.6e-05 1/K	0.000651 ± 1.6e-05 1/K	0.000645 ± 1.6e-05 1/K	0.000634 ± 1.6e-05 1/K	0.000628 ± 1.5e-05 1/K	0.000623 ± 1.5e-05 1/K	0.000612 ± 1.5e-05 1/K	0.000606 ± 1.5e-05 1/K	0.0006 ± 1.5e-05 1/K
288.15 K	0.000664 ± 1.6e-05 1/K	0.000653 ± 1.6e-05 1/K	0.000646 ± 1.6e-05 1/K	0.00064 ± 1.6e-05 1/K	0.000631 ± 1.5e-05 1/K	0.000623 ± 1.5e-05 1/K	0.000616 ± 1.5e-05 1/K	0.000606 ± 1.5e-05 1/K	0.000601 ± 1.5e-05 1/K	0.000597 ± 1.5e-05 1/K
298.15 K	0.000659 ± 1.6e-05 1/K	0.000651 ± 1.6e-05 1/K	0.000641 ± 1.6e-05 1/K	0.000633 ± 1.6e-05 1/K	0.000624 ± 1.5e-05 1/K	0.000617 ± 1.5e-05 1/K	0.000606 ± 1.5e-05 1/K	0.0006 ± 1.5e-05 1/K	0.000595 ± 1.5e-05 1/K	0.000589 ± 1.4e-05 1/K
308.15 K	0.000656 ± 1.6e-05 1/K	0.000644 ± 1.6e-05 1/K	0.000637 ± 1.6e-05 1/K	0.000627 ± 1.5e-05 1/K	0.000618 ± 1.5e-05 1/K	0.000611 ± 1.5e-05 1/K	0.000605 ± 1.5e-05 1/K	0.000597 ± 1.5e-05 1/K	0.000589 ± 1.4e-05 1/K	0.000581 ± 1.4e-05 1/K
318.15 K	0.000649 ± 1.6e-05 1/K	0.000644 ± 1.6e-05 1/K	0.000634 ± 1.6e-05 1/K	0.000623 ± 1.5e-05 1/K	0.000615 ± 1.5e-05 1/K	0.000607 ± 1.5e-05 1/K	0.000599 ± 1.5e-05 1/K	0.00059 ± 1.4e-05 1/K	0.000582 ± 1.4e-05 1/K	0.000576 ± 1.4e-05 1/K
328.15 K	0.000645 ± 1.6e-05 1/K	0.000635 ± 1.6e-05 1/K	0.000628 ± 1.5e-05 1/K	0.00062 ± 1.5e-05 1/K	0.000609 ± 1.5e-05 1/K	0.000601 ± 1.5e-05 1/K	0.000593 ± 1.5e-05 1/K	0.000584 ± 1.4e-05 1/K	0.000576 ± 1.4e-05 1/K	0.00057 ± 1.4e-05 1/K
338.15 K	0.000643 ± 1.6e-05 1/K	0.000633 ± 1.6e-05 1/K	0.000624 ± 1.5e-05 1/K	0.000614 ± 1.5e-05 1/K	0.000604 ± 1.5e-05 1/K	0.000598 ± 1.5e-05 1/K	0.000588 ± 1.4e-05 1/K	0.000582 ± 1.4e-05 1/K	0.000574 ± 1.4e-05 1/K	0.000569 ± 1.4e-05 1/K
348.15 K	0.00064 ± 1.6e-05 1/K	0.000629 ± 1.5e-05 1/K	0.00062 ± 1.5e-05 1/K	0.000612 ± 1.5e-05 1/K	0.000602 ± 1.5e-05 1/K	0.000595 ± 1.5e-05 1/K	0.000588 ± 1.4e-05 1/K	0.000579 ± 1.4e-05 1/K	0.000572 ± 1.4e-05 1/K	0.000565 ± 1.4e-05 1/K

CCCC[n+]1cccc(C)c1.F[B-](F)(F)F [1-butyl-3-methylpyridinium tetrafluoroborate]
isobaric coefficient of expansion
Conditions	5000 kPa	10000 kPa	15000 kPa	20000 kPa	25000 kPa	30000 kPa	35000 kPa	40000 kPa	45000 kPa	50000 kPa
278.15 K	0.000607 ± 1.5e-05 1/K	0.000601 ± 1.5e-05 1/K	0.000596 ± 1.5e-05 1/K	0.000591 ± 1.4e-05 1/K	0.000584 ± 1.4e-05 1/K	0.000581 ± 1.4e-05 1/K	0.000576 ± 1.4e-05 1/K	0.00057 ± 1.4e-05 1/K	0.000566 ± 1.4e-05 1/K	0.00056 ± 1.4e-05 1/K
288.15 K	0.0006 ± 1.5e-05 1/K	0.000593 ± 1.5e-05 1/K	0.000588 ± 1.4e-05 1/K	0.000585 ± 1.4e-05 1/K	0.000581 ± 1.4e-05 1/K	0.000575 ± 1.4e-05 1/K	0.000569 ± 1.4e-05 1/K	0.000564 ± 1.4e-05 1/K	0.000562 ± 1.4e-05 1/K	0.000558 ± 1.4e-05 1/K
298.15 K	0.000594 ± 1.5e-05 1/K	0.000589 ± 1.4e-05 1/K	0.000582 ± 1.4e-05 1/K	0.000577 ± 1.4e-05 1/K	0.000572 ± 1.4e-05 1/K	0.000566 ± 1.4e-05 1/K	0.00056 ± 1.4e-05 1/K	0.000556 ± 1.4e-05 1/K	0.000551 ± 1.3e-05 1/K	0.000549 ± 1.3e-05 1/K
308.15 K	0.000588 ± 1.4e-05 1/K	0.000582 ± 1.4e-05 1/K	0.000576 ± 1.4e-05 1/K	0.000569 ± 1.4e-05 1/K	0.000563 ± 1.4e-05 1/K	0.00056 ± 1.4e-05 1/K	0.000555 ± 1.4e-05 1/K	0.000551 ± 1.3e-05 1/K	0.000545 ± 1.3e-05 1/K	0.000541 ± 1.3e-05 1/K
318.15 K	0.00058 ± 1.4e-05 1/K	0.000578 ± 1.4e-05 1/K	0.000573 ± 1.4e-05 1/K	0.000565 ± 1.4e-05 1/K	0.00056 ± 1.4e-05 1/K	0.000554 ± 1.4e-05 1/K	0.000551 ± 1.3e-05 1/K	0.000545 ± 1.3e-05 1/K	0.000539 ± 1.3e-05 1/K	0.000535 ± 1.3e-05 1/K
328.15 K	0.000575 ± 1.4e-05 1/K	0.00057 ± 1.4e-05 1/K	0.000568 ± 1.4e-05 1/K	0.00056 ± 1.4e-05 1/K	0.000554 ± 1.4e-05 1/K	0.000549 ± 1.3e-05 1/K	0.000545 ± 1.3e-05 1/K	0.000539 ± 1.3e-05 1/K	0.000535 ± 1.3e-05 1/K	0.000531 ± 1.3e-05 1/K
338.15 K	0.000571 ± 1.4e-05 1/K	0.000567 ± 1.4e-05 1/K	0.000562 ± 1.4e-05 1/K	0.000554 ± 1.4e-05 1/K	0.000549 ± 1.3e-05 1/K	0.000545 ± 1.3e-05 1/K	0.000539 ± 1.3e-05 1/K	0.000536 ± 1.3e-05 1/K	0.00053 ± 1.3e-05 1/K	0.000529 ± 1.3e-05 1/K
348.15 K	0.000568 ± 1.4e-05 1/K	0.000562 ± 1.4e-05 1/K	0.000557 ± 1.4e-05 1/K	0.000554 ± 1.4e-05 1/K	0.000548 ± 1.3e-05 1/K	0.000542 ± 1.3e-05 1/K	0.00054 ± 1.3e-05 1/K	0.000534 ± 1.3e-05 1/K	0.000529 ± 1.3e-05 1/K	0.000526 ± 1.3e-05 1/K
